Target: T1, ZENC (Neurospora crassa, UniProt Q1K8M1)
T1 construct: gene NCU05345; codon-optimised full gene (888 bp; 295 residues in abstract, 296 in results) fused to alpha-factor signal peptide in pPIC9K; secreted from Pichia pastoris GS115, HiTrap Q purified; about 29 kDa by SDS-PAGE; proposed catalytic triad Ser117, Asp141, His274
Assay: HPLC with fluorescence detection of remaining substrate; nonlinear Hill fit with n = […]
Assay type: biochemical
Conditions: 50 mM Tris-HCl pH 8.0, 45 °C, 3 min; substrate range printed as 2 to 220 mM

T1 sequence (Q1K8M1 entry or part of it): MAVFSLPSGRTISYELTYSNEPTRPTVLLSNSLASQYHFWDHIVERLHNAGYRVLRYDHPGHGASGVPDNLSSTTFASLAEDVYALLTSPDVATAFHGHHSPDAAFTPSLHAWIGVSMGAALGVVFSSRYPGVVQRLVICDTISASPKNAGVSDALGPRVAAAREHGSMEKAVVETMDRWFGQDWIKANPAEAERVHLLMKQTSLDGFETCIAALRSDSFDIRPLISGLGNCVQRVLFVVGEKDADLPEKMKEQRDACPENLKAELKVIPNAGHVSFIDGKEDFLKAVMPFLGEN

## C[C@H]1CCCC(=O)CCC/C=C/c2cc(O)cc(O)c2C(=O)O1 [zearalenone]
  Km: 38.6 ± 5.87 µM

Reference: article PMC6301899, “Characterization, expression and application of a zearalenone degrading enzyme from Neurospora crassa” (AMB Express, 2018)
